After the bases stand the sugars from the 5' end (letter, count) and the backbone: PS all phosphorothioate, else s phosphorothioate and o phosphodiester by linkage. Methylation of C is not given here. e = 2'-O-(2-methoxyethyl) (MOE); k = constrained ethyl (cEt); d = 2'-deoxy (DNA); m = 2'-O-methyl
Target: HSD17B13
Conditions: ASO, HepaRG

Row | Sequence | target mRNA inhibition (1 µM) | further results
1 | GTCATTTAGAATACGC (sugars k3 d10 k3, PS) | 46% | –
2 | GTCCACTTGAATTCTG (sugars k3 d10 k3, PS) | 18% | –
3 | GTCCAGAATAGAGTTG (sugars k3 d10 k3, PS) | 60% | –
4 | GTCCAGGTTGAGATAA (sugars k3 d1 m1 d8 k3, PS) | 68% | –
5 | GTCCAGGTTGAGATAA (sugars k3 d9 k3 e1, PS) | 52% | –
6 | GTCCAGGTTGAGATAA (sugars kkdddddddddkekek, PS) | 36% | –
7 | GTCCCAGCATTATTCA (sugars k3 d10 k3, PS) | 21% | –
8 | GTCCTAGGGAGGAGGT (sugars k3 d10 k3, PS) | 36% | –
9 | GTCGGATTATTTTTTC (sugars k3 d10 k3, PS) | 61% | –
10 | GTCTAAAGTGCTGGTT (sugars k3 d10 k3, PS) | 39% | –
11 | GTCTACCACATACGCA (sugars k3 d10 k3, PS) | 66% | –
12 | GTCTACCTCTAAGTTA (sugars k3 d1 m1 d8 k3, PS) | 15% | –
13 | GTCTTAAACCTTCCCT (sugars k3 d9 k3 e1, PS) | 50% | –
14 | GTCTTGATGTAGTGGG (sugars k3 d9 k3 e1, PS) | 70% | –
15 | GTCTTGATGTAGTGGG (sugars k3 d10 k3, PS) | 67% | target mRNA inhibition (0.02 µM): 17%; target mRNA inhibition (0.078 µM): 22%; target mRNA inhibition (0.313 µM): 41%; target mRNA inhibition (1.25 µM): 72%; target mRNA inhibition (5 µM): 87%
16 | GTCTTGATGTAGTGGG (sugars kkdddddddddkekek, PS) | 18% | –
17 | GTCTTGGTAATCTCTT (sugars k3 d10 k3, PS) | 37% | –
18 | GTGAAATCTTGTGTAA (sugars k3 d10 k3, PS) | 44% | –
19 | GTGCAAGATGATGACA (sugars k3 d10 k3, PS) | 19% | –
20 | GTGCACTCATTCTGTG (sugars k3 d10 k3, PS) | 6% | –

Row | Sequence | target mRNA inhibition (1 µM) | further results
21 | GTGCATCTTAAGATAC (sugars k3 d9 k3 e1, PS) | 29% | –
22 | GTGCCAAACCAATGTT (sugars k3 d10 k3, PS) | 43% | –
23 | GTGCTGAGAAGATCGG (sugars k3 d10 k3, PS) | 0% | –
24 | GTGGGATAAACTGTTC (sugars k3 d10 k3, PS) | 52% | –
25 | GTGGTAACGGTGATCA (sugars k3 d10 k3, PS) | 49% | –
26 | GTGTAAGCTGAGAGTT (sugars kkdddddddddkekek, PS) | 57% | –
27 | GTGTAGTCCTAGGGAG (sugars k3 d10 k3, PS) | 67% | –
28 | GTGTAGTTTGGTGGGC (sugars k3 d10 k3, PS) | 33% | –
29 | GTTAATGTAGTGTTTA (sugars k3 d10 k3, PS) | 77% | target mRNA inhibition (0.02 µM): 7%; target mRNA inhibition (0.078 µM): 25%; target mRNA inhibition (0.313 µM): 45%; target mRNA inhibition (1.25 µM): 78%; target mRNA inhibition (5 µM): 92%
30 | GTTAGAATAGTCTTCA (sugars k3 d9 k3 e1, PS) | 71% | –
31 | GTTAGAATAGTCTTCA (sugars k3 d10 k3, PS) | 46% | –
32 | GTTAGAATAGTCTTCA (sugars kkdddddddddkekek, PS) | 45% | –
33 | GTTAGTATAGTTATCT (sugars kkdddddddddkekek, PS) | 51% | –
34 | GTTATCAGAAACTTAT (sugars k3 d10 k3, PS) | 31% | –
35 | GTTATTGTAGGGATTG (sugars k3 d10 k3, PS) | 69% | –
36 | GTTAUTCTCTTGACAA (sugars k3 d1 m1 d8 k3, PS) | 29% | –
37 | GTTCAGTCCTTGTGTA (sugars k3 d10 k3, PS) | 38% | –
38 | GTTCTTATCCACACCT (sugars k3 d10 k3, PS) | 57% | –
39 | GTTGAGATAAAGCTGC (sugars k3 d1 m1 d8 k3, PS) | 51% | –
40 | GTTGAGATAAAGCTGC (sugars kkdddddddddkekek, PS) | 40% | –
